Test results taken from patent US20240310368A1, “DETECTION KIT FOR CATECHOLAMINES AND METABOLITES THEREOF IN PLASMA/URINE AND DETECTION METHOD THEREOF” (Calibra Scientific, Inc., priority 2023, published 2024).
Values joined by “and” are separate entries in the source; they are usually repeats but may differ in a detail not shown here. Identical values can stand only once.

Columns and labels:
[1] = Acceleration test of plasma samples with stabilizers (30° C. for 1.5 days, against control plasma stored at −95° C. to −65° C.), LC-MS/MS Area/IS Area
Procedure: Samples were collected in EDTA-anticoagulant blood collection tubes and then rapidly subjected to […] centrifugation at 2-8° C. to separate plasma. 0.95 mL of the plasma was transferred into centrifuge tubes. After 50 μL of the stabilizer was added for uniform mixing, the plasma samples were stored by refrigeration or freezing.
• (1) 500 μL of plasma/urine samples to be tested were taken, and 50 μL of the internal standard solution and 500 μL of the buffer solution were sequentially added for vertex mixing to obtain diluted samples. • (2) The magnetic medium composite material suspension was subjected to full vortex treatment to reach a suspension state, and then subsequent operation was performed. • (3) Different reagents were added into wells of a preprocessing plate according to the follow operation: adding 200 μL of the magnetic medium composite material suspension in column 1, adding 500 μL of the balance solution in column 2, adding 850 μL of the diluted samples in column 3, adding 500 μL of the balance solution in column 4, adding 200 μL of a rinsing solution in column 5, and adding 100 μL of the elution solution in column 6. • (4) An extraction operation procedure was carried out, as shown in Table 5.
Each group of the plasma samples were stored at 30° C. for 1.5 days, and plasma without addition of any compounds stored at −95° C. to −65° C. was used as a control. […] The stabilizing effect of the single-component stabilizers on the plasma samples was investigated.
The stabilizers were mixed with plasma (the volume ratio of the stabilizers to plasma samples was 1:19), and high concentration plasma samples and low concentration plasma samples were prepared by the method provided in Example 1.
With plasma stored at −95° C. to −65° C. as a control, the above plasma samples were separately stored at 30° C. for 1.5 days to investigate the stability. […]

[2] = Stability of ascorbic acid and glutathione in stabilizers accelerated at 37° C. for 14 days against an unaccelerated stabilizer; assay type: physicochemical; conditions: for stability of ascorbic acid and glutathione in stabilizers after acceleration: 37° C. for 14 days (equivalent to 1 year at 2-8° C.); for Relative deviation %: after acceleration at 37° C. for 14 days vs new formulations
Procedure: Stabilizers (Example 1) were accelerated at 37° C. for 14 days (equivalent to 1 year at 2-8° C.) and then compared with an unaccelerated stabilizer.

[3] = Stabilizing effect of accelerated stabilizers (37° C., 14 days) on standard products and quality control products then accelerated at 30° C. for 2 days; assay type: physicochemical; conditions: for Relative deviation %: 2 days at 30° C. vs Control; for concentration in standard products and quality control products, 2 days at 30° C. / concentration in standard products and quality control products, Control: single replicates
Procedure: Standard products of epinephrine, norepinephrine, dopamine, metanephrine, normetanephrine and 3-methoxytyramine were prepared into mixed solutions, and blank plasma containing a stabilizer was used as a matrix to prepare standard products and quality control products.
(§1) In the present example, the stabilizing effect of the stabilizers on plasma samples, standard products and quality control products after acceleration was further verified. The stabilizers were accelerated at 37° C. for 14 days (equivalent to 1 year at 2-8° C.), added into the plasma samples in proportions and then accelerated at 30° C. for 1.5 days (equivalent to 12 months at −30° C. to −15° C.). The stabilizers were accelerated at 37° C. for 14 days (equivalent to 1 year at 2-8° C.), added into the standard products and the quality control products in proportions and then accelerated at 30° C. for 2 days (equivalent to 18 months at −30° C. to −15° C.).

[4] = Stabilizing effect of accelerated stabilizers (37° C., 14 days) on plasma samples then accelerated at 30° C. for 1.5 days; assay type: physicochemical, human; conditions: for Relative deviation %: Accelerate vs Control; for concentration in plasma samples, Control / concentration in plasma samples, Accelerate: single replicates; for concentration in plasma samples, Accelerate: stabilizer accelerated 37° C. 14 days, plasma then accelerated at 30° C. for 1.5 days
Procedure: as §1

[5] = plasma at a high concentration level, plasma containing 50 μg/mL of the component, control plasma 0.624
[6] = plasma at a high concentration level, plasma containing 50 μg/mL of the component, control plasma 1.522
[7] = plasma at a high concentration level, plasma containing 50 μg/mL of the component, control plasma 2.27
[8] = plasma at a high concentration level, plasma containing 200 μg/mL of the component, control plasma 0.624
[9] = plasma at a high concentration level, plasma containing 200 μg/mL of the component, control plasma 1.522
[10] = plasma at a high concentration level, plasma containing 200 μg/mL of the component, control plasma 2.27
[11] = plasma at a low concentration level, plasma containing 50 μg/mL of the component, control plasma 0.079
[12] = plasma at a low concentration level, plasma containing 50 μg/mL of the component, control plasma 0.219
[13] = plasma at a low concentration level, plasma containing 50 μg/mL of the component, control plasma 0.233
[14] = plasma at a low concentration level, plasma containing 200 μg/mL of the component, control plasma 0.079
[15] = plasma at a low concentration level, plasma containing 200 μg/mL of the component, control plasma 0.219
[16] = plasma at a low concentration level, plasma containing 200 μg/mL of the component, control plasma 0.233
[17] = After acceleration (stabilizer of Example 1, 37° C. for 14 days)
[18] = New formulations (unaccelerated stabilizer of Example 1)
[19] = samples at a high concentration level
[20] = samples at a low concentration level

Relative deviation % ([3]; High concentration level)	average concentration, 2 days at 30° C. ([3]; High concentration level)	average concentration, Control ([3]; High concentration level)	Relative deviation % ([3]; Low concentration level)	average concentration, 2 days at 30° C. ([3]; Low concentration level)	average concentration, Control ([3]; Low concentration level)	Relative deviation % ([3]; Medium concentration level)	average concentration, 2 days at 30° C. ([3]; Medium concentration level)	average concentration, Control ([3]; Medium concentration level)	Relative deviation % [4, 19]	Relative deviation % [4, 20]	Structure (SMILES)	concentration in standard products and quality control products, 2 days at 30° C. ([3]; High concentration level)	concentration in standard products and quality control products, Control ([3]; High concentration level)	concentration in standard products and quality control products, 2 days at 30° C. ([3]; Low concentration level)	concentration in standard products and quality control products, Control ([3]; Low concentration level)	concentration in standard products and quality control products, 2 days at 30° C. ([3]; Medium concentration level)	concentration in standard products and quality control products, Control ([3]; Medium concentration level)	concentration in plasma samples, Control [4, 19]	concentration in plasma samples, Accelerate [4, 19]	concentration in plasma samples, Control [4, 20]	other results
0.32%	4998.13 pg/mL	4982.23 pg/mL	−8.19%	55.15 pg/mL	60.07 pg/mL	1.77%	994.89 pg/mL	977.62 pg/mL	−7.1%	−2.5%	NC[C@H](O)c1ccc(O)c(O)c1 [NE]	4884.69 pg/mL and 4965.31 pg/mL and 5144.39 pg/mL	4877.38 pg/mL and 5145.11 pg/mL and 4924.2 pg/mL	57.33 pg/mL and 52.99 pg/mL and 55.14 pg/mL	64.29 pg/mL and 60.19 pg/mL and 55.75 pg/mL	989.28 pg/mL and 1018.81 pg/mL and 976.58 pg/mL	971.73 pg/mL and 971.42 pg/mL and 989.69 pg/mL	1730.55 pg/mL and 1840.24 pg/mL and 1884.85 pg/mL	1794.76 pg/mL and 1568.75 pg/mL and 1702.97 pg/mL	270.92 pg/mL and 261.70 pg/mL and 266.01 pg/mL	concentration in plasma samples, Accelerate [4, 20]: 264.32 pg/mL and 257.64 pg/mL and 256.36 pg/mL
0.3%	1485.59 pg/mL	1481.12 pg/mL	−0.29%	17.86 pg/mL	17.91 pg/mL	−2.2%	294.46 pg/mL	301.09 pg/mL	−2.0%	−0.8%	NCCc1ccc(O)c(O)c1 [DA]	1464.03 pg/mL and 1430.79 pg/mL and 1561.95 pg/mL	1462.01 pg/mL and 1494.48 pg/mL and 1486.88 pg/mL	17.62 pg/mL and 18.37 pg/mL and 17.58 pg/mL	17.22 pg/mL and 18.1 pg/mL and 18.41 pg/mL	282.1 pg/mL and 315.35 pg/mL and 285.95 pg/mL	308.26 pg/mL and 301.48 pg/mL and 293.52 pg/mL	559.03 pg/mL and 529.98 pg/mL and 571.32 pg/mL	550.49 pg/mL and 548.70 pg/mL and 527.12 pg/mL	74.30 pg/mL and 90.53 pg/mL and 87.68 pg/mL	concentration in plasma samples, Accelerate [4, 20]: 87.86 pg/mL and 78.29 pg/mL and 84.42 pg/mL

The next lines start with the compound.

Structure (SMILES)	Relative deviation % ([3]; High concentration level)	average concentration, 2 days at 30° C. ([3]; High concentration level)	average concentration, Control ([3]; High concentration level)	Relative deviation % ([3]; Low concentration level)	average concentration, 2 days at 30° C. ([3]; Low concentration level)	average concentration, Control ([3]; Low concentration level)	Relative deviation % ([3]; Medium concentration level)	average concentration, 2 days at 30° C. ([3]; Medium concentration level)	average concentration, Control ([3]; Medium concentration level)	Relative deviation % [4, 19]	Relative deviation % [4, 20]	concentration in standard products and quality control products, 2 days at 30° C. ([3]; High concentration level)	concentration in standard products and quality control products, Control ([3]; High concentration level)	concentration in standard products and quality control products, 2 days at 30° C. ([3]; Low concentration level)	concentration in standard products and quality control products, Control ([3]; Low concentration level)	concentration in standard products and quality control products, 2 days at 30° C. ([3]; Medium concentration level)	concentration in standard products and quality control products, Control ([3]; Medium concentration level)	concentration in plasma samples, Control [4, 19]	concentration in plasma samples, Accelerate [4, 19]	concentration in plasma samples, Control [4, 20]	other results
O=C1O[C@H]([C@@H](O)CO)C(O)=C1O [ascorbic acid]																					Ratio (Area/IS Area) E [1, 5]: 0; Ratio (Area/IS Area) NE [1, 6]: 0; Ratio (Area/IS Area) DA [1, 7]: 0; Ratio (Area/IS Area) E [1, 8]: 0.048; Ratio (Area/IS Area) NE [1, 9]: 0; Ratio (Area/IS Area) DA [1, 10]: 0; Ratio (Area/IS Area) E [1, 11]: 0; Ratio (Area/IS Area) NE [1, 12]: 0; Ratio (Area/IS Area) DA [1, 13]: 0; Ratio (Area/IS Area) E [1, 14]: 0; Ratio (Area/IS Area) NE [1, 15]: 0; Ratio (Area/IS Area) DA [1, 16]: 0; stability of ascorbic acid and glutathione in stabilizers after acceleration [2]: maintained stable; Area [2, 17]: 6.96E+05 and 6.32E+05 and 6.08E+05; Area [2, 18]: 6.88E+05 and 7.26E+05 and 6.96E+05; Relative deviation % [2]: −8.2%
N[C@@H](CCC(=O)N[C@@H](CS)C(=O)NCC(=O)O)C(=O)O [glutathione]																					Ratio (Area/IS Area) E [1, 5]: 0; Ratio (Area/IS Area) NE [1, 6]: 0; Ratio (Area/IS Area) DA [1, 7]: 0; Ratio (Area/IS Area) E [1, 8]: 0; Ratio (Area/IS Area) NE [1, 9]: 0; Ratio (Area/IS Area) DA [1, 10]: 0; Ratio (Area/IS Area) E [1, 11]: 0; Ratio (Area/IS Area) NE [1, 12]: 0; Ratio (Area/IS Area) DA [1, 13]: 0; Ratio (Area/IS Area) E [1, 14]: 0; Ratio (Area/IS Area) NE [1, 15]: 0; Ratio (Area/IS Area) DA [1, 16]: 0; stability of ascorbic acid and glutathione in stabilizers after acceleration [2]: maintained stable; Area [2, 17]: 7.45E+04 and 7.62E+04 and 8.98E+04; Area [2, 18]: 8.44E+04; Relative deviation % [2]: −5.0%
CNCC(O)c1ccc(O)c(OC)c1 (centres unmarked) [MN]	0.61%	984.35 pg/mL	978.42 pg/mL	2.69%	12.16 pg/mL	11.84 pg/mL	−1.18%	198.93 pg/mL	201.31 pg/mL	−1.2%	1.9%	1003.42 pg/mL and 934.28 pg/mL and 1015.36 pg/mL	1006.62 pg/mL and 972.42 pg/mL and 956.2 pg/mL	12.33 pg/mL and 13.02 pg/mL and 11.13 pg/mL	12.65 pg/mL and 12.91 pg/mL and 9.97 pg/mL	202.99 pg/mL and 208.12 pg/mL and 185.68 pg/mL	212.81 pg/mL and 196.9 pg/mL and 194.22 pg/mL	416.72 pg/mL and 406.68 pg/mL and 409.97 pg/mL	397.38 pg/mL and 419.65 pg/mL and 402.05 pg/mL	75.92 pg/mL and 79.77 pg/mL and 73.21 pg/mL	concentration in plasma samples, Accelerate [4, 20]: 77.80 pg/mL and 76.74 pg/mL and 78.72 pg/mL
